The source of these data is patent US20030206968A1, “Fungicidal mixtures” (priority 1999, published 2003).

What all share (format): in vivo
Test [1] relates to Botrytis cinerea. In words: Apple fruit Botrytis test, Botrytis cinerea on apple fruits, 3 day residual. The method, then: 1. Apples (Malus X domestica Borkh.) variety Golden Delicious are disinfected by washing them briefly in 70% ethanol. After drying the apples are marked with four short equal-distant lines indicating the positions to be wounded.
2. Corresponding with the marks, four holes are poked around the apple equator with a pipette tip. 10 μl of the treatment solution are pipetted into each hole.
3. Three hours after application, 10 μl of a conidial suspension of Botrytis cinerea are pipetted into each. For incubation, the treated/inoculated apples are set up for five days.
4. Disease occurs as rotten apple tissue surrounding the inoculated wounds. The diameter of the rotten zone around each wound is measured.
1. Technical compounds are formulated in a solvent system consisting of 5% acetone and 0.05% Tween 20 in deionized water. Compounds are dissolved in acetone prior to dilution with water. Formulated compounds are prepared using deionized water.
2. Three kinds of controls are included:
Assessments of the diseases took place at the indicated day after the application of the compounds. Per cent infected leaf area infected was evaluated. The efficacy of the compounds/compounds mixtures to control the diseases was calculated by using the formula: [formula]
(§1) Synergy was calculated using the % disease control values of specific treatments for the two COLBY formula given hereinabove
Fungicidal efficacy of the mixture of Azolopyrimidine A+vinclozolin (3 day residual) against Botrytis cinerea on apple fruits The tank mix was obtained from technical material of Azolopyrimidine A and a WG formulation containing 500 g vinclozolin per kg.
Fungicidal efficacy of the mixture of Azolopyrimidine A+cyprodinil (3 day residual) against Botrytis cinerea on apple fruits The tank mix was obtained from technical material of Azolopyrimidine A and a WG formulation containing 750 g cyprodinil per kg.
Fungicidal efficacy of the mixture of Azolopyrimidine A+benomyl (3 day residual) against Botrytis cinerea on apple fruits The tank mix was obtained from technical material of Azolopyrimidine A and a WP formulation containing 500 g benomyl per kg.

Test [2] concerns Erysiphe cichoracearum. Briefly: Greenhouse, Erysiphe cichoracearum on cucumbers, 1 day residual. As to conditions: Example 24. As for the experimental part: (§2) The trials are carried out under greenhouse (Examples 1 to 32) or field conditions (Examples 33 to 40) in residual or curative applications. The fungicides are applied in single treatments, or in a combination comprising an azolopyrimidine of formula I and a compound selected from the classes (A), (B) and (C) as defined above. The compounds are applied in form of an aqueous spray mix obtained from a concentrated formulation or the technical material.
(§3) 1. Seed is planted in 6 cm diameter plastic pots and maintained in the greenhouse.
(§4) 2. When the primary leaf is fully expanded in the case of cereals or several leaves are present in the case of dicots, formulated test compounds are sprayed with a three nozzle overhead fungicide sprayer to near run-off. Alternatively, a single nozzle overhead track sprayer is used for application of the compounds to cereals at a rate of 200 l/ha. Plants are then allowed to air-dry.
(§5) 3. Inoculation precedes treatment in the case of curative evaluations and follows treatment in case of residual evaluations. For inoculation of powdery mildew disease, plants are set up on greenhouse benches with bottom watering mats and inoculated by dusting them with conidia from infected plants. Between inoculation and treatment for curative evaluations and between treatment and inoculation for residual evaluations, plants are maintained in the greenhouse with bottom watering.
(§6) 4. Disease on the foliage as percent leaf area with disease symptoms/signs is evaluated about 7 days after inoculation. In the case of wheat, the tips and bases of the leaves are excluded from the evaluation. [formula]
(§7) 1. Technical compounds are formulated in a solvent/surfactant system consisting of 5% acetone and 0.05% Tween 20 in deionized water. Compounds are dissolved in acetone prior to addition of the water; the Tween 20 can be added through either the acetone or the water. Dilutions are made using the solvent/surfactant system. Formulated compounds are prepared using deionized water.
(§8) 2. Two kinds of controls are included: Plants treated with the solvent/surfactant solution and inoculated (Solvent Blank). Untreated plants which are inoculated (Inoculated Control).
(§9) Assessments of the diseases took place at the indicated day after the application of the compounds. Per cent infected leaf area infected was evaluated. The efficacy of the compounds/compounds mixtures to control the diseases was calculated by using the formula given above under item 4: […]
as §1
Fungicidal efficacy of the mixture of Azolopyrimidine C+triforine (1 day residual) against Erysiphe cichoracearum on cucumbers
the tank mix was obtained from a SC formulation containing 100 g of Azolopyrimidine C per liter and an DC formulation containing and 190 g of triforine per liter.
Fungicidal efficacy of the mixture of Azolopyrimidine C+cyprodinil (1 day residual) against Erysiphe cichoracearum on cucumbers The tank mix was obtained from a SC formulation containing 100 g of Azolopyrimidine C per liter and a WG formulation containing and 750 g of cyprodinil per kg.

Test [3] has as its system Alternaria solani. In words: Greenhouse, Alternaria solani on tomatoes, 1 day residual. As to conditions: Example 25; rate 16 g/ha. The method, then:
as §2, §3, §4, §5
(§10) For inoculation of non-powdery mildew diseases, an aqueous spore suspension of the pathogen is applied to the plant and the plants are kept 1-2 days in a moist infection chamber before being returned to the greenhouse where they are maintained by bottom watering.
as §6, §7, §8, §9, §1
Fungicidal efficacy of the mixture of Azolopyrimidine C and different fungicides (1 day residual) against Alternaria solani on tomatoes The tank mix was obtained from an SC formulation containing 100 g Azolopyrimidine A per liter and WP formulations of dithianon (750 g/kg), captan (500 g/kg), cyprodinil (750 g/kg), mancozeb (800 g/kg), or a SC formulation of chlorothalonil (500 g/l), or a FS formulation of fenpiclonil (400 g/l), spectively.

For test [4], the system named is Septoria tritici. In words: Field test, Septoria tritici on wheat. As for the experimental part: as §2
(§11) For the field study formulated Azolopyrimidine A, B or C and formulated compounds from the classes (A), (B) and (C) were used.
as §9, §1
(§12) The compounds are applied according to good agricultural practice in the form of an aqueous spray mix obtained from a concentrated formulation or the technical material at a rate of 400 l/ha. The disease control is evaluated according to the formula given for the greenhouse tests.
Fungicidal efficacy of the mixture of Azolopyrimidine C+metconazole in the field against Septoria tritici on wheat The tank mix was obtained from an EC formulation containing 150 g Azolopyrimidine C per liter and a SL formulation containing 60 g metconazole per liter. The observed and expected efficacies with different rates are given in Table XXXIVa (19 days after application) and Table XXXIVb (25 days after application):
Fungicidal efficacy of the mixture of (S)-Azolopyrimidine C+kresoxim methyl in the field against Septoria tritici on wheat The tank mix was obtained from a SC formulation containing 100 g (S)-Azolopyrimidine C per liter and a WG formulation containing 500 g kresoxim methyl per kg. The observed and expected efficacies with different rates are given in Tables XXXVa (7 days after application), XXXVb (22 days after application), XXXVc (34 days after application), and XXXVd (41 days after application):
Fungicidal efficacy of the mixture of Azolopyrimidine A and different cereal fungicides the field against Septoria tritici on wheat 15 days after application The tank mix was obtained from an SC formulation containing 100 g Azolopyrimidine A per liter and commercially available formulations of metconazole, epoxiconazole or propiconazole, respectively.

In test [5] the test system is Blumeria graminis. In words: Field test, Blumeria graminis on wheat. To be noted: 15 days after application. The method, then:
as §2, §11, §9, §1, §12
Fungicidal efficacy of the mixture of (S)-Azolopyrimidine C+cyproconazole in the field against Blumeria graminis on wheat 17 days after application The tank mix was obtained from a SC formulation containing 100 g (S)-Azolopyrimidine C per liter and an EC formulation containing 60 g cyproconazole per liter.
Fungicidal efficacy of the mixture of (S)-Azolopyrimidine C+azoxystrobin in the field against Blumeria graminis on wheat 17 days after application The tank mix was obtained from a SC formulation containing 100 g (S)-Azolopyrimidine C per liter and a SC formulation containing 250 g azoxystrobin per kg.
Fungicidal efficacy of the mixture of Azolopyrimidine A and different cereal fungicides in the field against Blumeria graminis on wheat 15 days after application The tank mix was obtained from an SC formulation containing 100 g Azolopyrimidine A per liter and commercially available formulations of metconazole, epoxiconazole or kresoxim methyl, respectively.

Test [6] relates to Puccinia recondita. In words: Field test, Puccinia recondita on wheat. As to conditions: 50 days after application. As for the experimental part:
as §2, §11, §9, §1, §12
Fungicidal efficacy of the mixture of Azolopyrimidine A and different cereal fungicides in the field against Puccinia recondita on wheat 50 days after application The tank mix was obtained from an SC formulation containing 100 g Azolopyrimidine A per liter and commercially available formulations of metconazole, epoxiconazole, propiconazole or kresoxim methyl, respectively.

For test [7], the system named is Leptosphaeria nodorum. Briefly: Greenhouse, Leptosphaeria nodorum on wheat, 3 day residual. As for the experimental part: as §2, §3, §4, §5, §10, §6, §7, §8, §9, §1
Fungicidal efficacy of the mixture of Azolopyrimidine A+fenpropimorph (3 day residual) against Leptosphaeria nodorum on wheat The tank mix was obtained from technical material of Azolopyrimidine A and an EC formulation containing 750 g fenpropimorph per liter.
Fungicidal efficacy of the mixture of Azolopyrimidine A+tebuconazole (3 day residual) against Leptosphaeria nodorum on wheat The tank mix was obtained from technical material of Azolopyrimidine A and an EC formulation containing 250 g tebuconazole per liter.

The test system of test [8] is Blumeria graminis. Briefly: Greenhouse, Blumeria graminis on wheat, 2 day residual. As to conditions: Example 3. As for the experimental part: as §2, §3, §4, §5, §6
1. […]
as §9
Synergy was calculated using the % disease control values of specific treatments for the two COLBY formula given hereinabove […]

In test [9] the test system is Puccinia recondita. Briefly: Greenhouse, Puccinia recondita on wheat, 1 day curative, plants sprayed twice, once with each compound. As to conditions: Example 12. As for the experimental part: as §2, §3, §4, §5, §10, §6, §7, §8, §9, §1
Fungicidal efficacy of the mixture of Azolopyrimidine C+kresoxim methyl (1 day curative) against Puccinia recondita on wheat Plants sprayed twice, once with each compound. The tank mixes were obtained from a SC formulation containing 100 g Azolopyrimidine C per liter and a WG containing 500 g kresoxim methyl per kg.

[10] abbreviates: Azolopyrimidine A 125 g/ha alone.

As to `Cc1cc(C2CC2)nc(Nc2ccccc2)n1` [cyprodinil], the “Observed Efficacy” value in test [1] (Example 5, dose rate 0.1 ppm) was 2%; in test [1] (Example 5, dose rate 1 ppm) it was 46%; in [2] (dose rate 4 ppm), 0%; in test [2] (dose rate 16 ppm) it was 29%; in test [3], 13%.
Turning to `Fc1ccc([C@]2(Cn3cncn3)O[C@H]2c2ccccc2Cl)cc1` (racemic) [epoxiconazole], the “Observed Efficacy” value is listed as 93 in test [4] (epoxiconazole 63 g/ha alone, 15 days after application, field, wheat); 40 in test [5] (epoxiconazole 63 g/ha alone); 95 in test [6] (epoxiconazole 63 g/ha alone).
As to `CCCC1COC(Cn2cncn2)(c2ccc(Cl)cc2Cl)O1` (centres unmarked) [propiconazole], the “Observed Efficacy” value in test [4] (propiconazole 63 g/ha alone, 15 days after application, field, wheat) came to 72; in [6] (propiconazole 63 g/ha alone), 49.
`CC1CCN(c2c(-c3c(F)cccc3Cl)c(Cl)nc3ncnn23)CC1` [Azolopyrimidine A, 5-chloro-6-(2-chloro-6-fluorophenyl)-7-(4-methylpiperid-1-yl)-[1,2,4]triazolo[1,5-a]pyrimidine]: the “Observed Efficacy” value in test [7] (Example 1, dose rate 10 ppm) is reported as 35%; in test [7] (Example 1, dose rate 100 ppm) it was 40%; in test [7] (Example 2, dose rate 100 ppm), 40%; in test [8] (dose rate 10 ppm) it was 14%; in [1] (Example 4, dose rate 1 ppm), 0%; in test [1] (Example 4, dose rate 10 ppm) it was 33%. Moreover, the “Observed Efficacy” value stood at 0% in [1] (Example 5, dose rate 1 ppm); 33% in test [1] (Example 5, dose rate 10 ppm); 0% in [1] (Example 6, dose rate 1 ppm); 0% in [1] (Example 6, dose rate 10 ppm); 0% in test [1] (Example 7, dose rate 1 ppm); 25% in test [1] (Example 7, dose rate 10 ppm). Moreover, the “Observed Efficacy” value in test [4] (Azolopyrimidine A 125 g/ha alone, 15 days after application, field, wheat) came out at 63; in test [5] (setting [10]), 22; in test [6] (setting [10]) it was 0.
Turning to `CO/N=C(/C(=O)OC)c1ccccc1COc1ccccc1C` [kresoxim methyl], the “Observed Efficacy” value is 0% in [9] (dose rate 25 g/ha); 1% in test [9] (dose rate 50 g/ha); 0% in test [9] (dose rate 100 g/ha); 1% in test [9] (dose rate 200 g/ha); 5% in test [9] (dose rate 400 g/ha); 40% in test [4] (Example 35, 7 days after application, dose rate 100 g/ha). Besides, the “Observed Efficacy” value is 64% in test [4] (Example 35, 22 days after application, dose rate 100 g/ha); 44% in test [4] (Example 35, 34 days after application, dose rate 50 g/ha); 59% in [4] (Example 35, 34 days after application, dose rate 100 g/ha); 92 in [4] (kresoxim methyl 100 g/ha alone, 41 days after application, field, wheat); 85 in test [5] (kresoxim methyl 100 g/ha alone); 0 in test [6] (kresoxim methyl 100 g/ha alone).
As for `CC(C)(C)C(O)(CCc1ccc(Cl)cc1)Cn1cncn1` (centres unmarked) [tebuconazole], the “Observed Efficacy” value was determined as 25% in [7] (Example 2, dose rate 0.02 ppm); 19% in test [7] (Example 2, dose rate 0.2 ppm); 2% in [8] (dose rate 0.02 ppm); 9% in [8] (dose rate 0.2 ppm).
